Legend:
Assay in all cases: relative viability (nuclei count vs DMSO), 5 days (fraction); higher = more cells survive
A-427 = tested on: A-427
Summary of the method: (§1)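 Values are medians from duplicate plates. Each reflects relative viability, defined as the nuclei count of treated wells over that of vehicle wells. Lung cancer cell lines in 1536-well plates were pin-tool dosed one day after seeding with one drug alone or with a fixed anchor-drug dose plus five library-drug doses (not always all listed) in √10 steps, then fixed, stained and imaged at 4× after 5 days.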

COR-L 105 = tested on: COR-L 105
Summary of the method: as §1

ChaGo-K-1 = tested on: ChaGo-K-1
Summary of the method: as §1

EKVX = tested on: EKVX
Summary of the method: as §1

EMC-BAC-2 = tested on: EMC-BAC-2
Summary of the method: as §1

H3255 = tested on: H3255
Summary of the method: as §1

HCC-366 = tested on: HCC-366
Summary of the method: as §1

LK-2 = tested on: LK-2
Summary of the method: as §1

LOU-NH91 = tested on: LOU-NH91
Summary of the method: as §1

NCI-H1563 = tested on: NCI-H1563
Summary of the method: as §1

NCI-H1666 = tested on: NCI-H1666
Summary of the method: as §1

NCI-H1734 = tested on: NCI-H1734
Summary of the method: as §1

NCI-H1755 = tested on: NCI-H1755
Summary of the method: as §1

NCI-H1975 = tested on: NCI-H1975
Summary of the method: as §1

NCI-H2170 = tested on: NCI-H2170
Summary of the method: as §1

NCI-H23 = tested on: NCI-H23
Summary of the method: as §1

NCI-H441 = tested on: NCI-H441
Summary of the method: as §1

NCI-H520 = tested on: NCI-H520
Summary of the method: as §1

NCI-H596 = tested on: NCI-H596
Summary of the method: as §1

PC-3 [JPC-3] = tested on: PC-3 [JPC-3]
Summary of the method: as §1

SK-MES-1 = tested on: SK-MES-1
Summary of the method: as §1

SW 900 = tested on: SW 900
Summary of the method: as §1

C=C1C(=O)O[C@@H](CCCCCCCC)[C@@H]1C(=O)O [C-75] + COc1cc2c(Oc3ccc(NC(=O)C4(C(=O)Nc5ccc(F)cc5)CC4)cc3F)ccnc2cc1OCCCN1CCOCC1 [Foretinib] (partner 0.25 µM)
relative viability (A-427; first compound 0.08 µM): 0.898 | relative viability (A-427; first compound 0.253 µM): 1.18 | relative viability (A-427; first compound 0.8 µM): 0.969 | relative viability (A-427; first compound 2.53 µM): 1.03 | relative viability (A-427; first compound 8 µM): 0.992 | relative viability (COR-L 105; first compound 0.08 µM): 0.934 | relative viability (COR-L 105; first compound 0.253 µM): 1.17 | relative viability (COR-L 105; first compound 0.8 µM): 1.12 | relative viability (COR-L 105; first compound 2.53 µM): 0.828 | relative viability (COR-L 105; first compound 8 µM): 1 | relative viability (ChaGo-K-1; first compound 0.08 µM): 0.915 | relative viability (ChaGo-K-1; first compound 0.253 µM): 0.887 | relative viability (ChaGo-K-1; first compound 0.8 µM): 0.894 | relative viability (ChaGo-K-1; first compound 2.53 µM): 0.925 | relative viability (ChaGo-K-1; first compound 8 µM): 0.874 | relative viability (EKVX; first compound 0.08 µM): 0.644 | relative viability (EKVX; first compound 0.253 µM): 0.925 | relative viability (EKVX; first compound 0.8 µM): 0.782 | relative viability (EKVX; first compound 8 µM): 1.06 | relative viability (EMC-BAC-2; first compound 0.08 µM): 1.02 | relative viability (EMC-BAC-2; first compound 0.253 µM): 1.1 | relative viability (EMC-BAC-2; first compound 0.8 µM): 0.99 | relative viability (EMC-BAC-2; first compound 2.53 µM): 0.904 | relative viability (EMC-BAC-2; first compound 8 µM): 1.05 | relative viability (H3255; first compound 0.08 µM): 0.837 | relative viability (H3255; first compound 0.253 µM): 0.927 | relative viability (H3255; first compound 0.8 µM): 0.73 | relative viability (H3255; first compound 2.53 µM): 0.736 | relative viability (H3255; first compound 8 µM): 0.983 | relative viability (HCC-366; first compound 0.08 µM): 0.909 | relative viability (HCC-366; first compound 0.253 µM): 0.961 | relative viability (HCC-366; first compound 0.8 µM): 0.877 | relative viability (HCC-366; first compound 8 µM): 0.845 | relative viability (LK-2; first compound 0.08 µM): 0.944 | relative viability (LK-2; first compound 0.253 µM): 1.23 | relative viability (LK-2; first compound 0.8 µM): 1.15 | relative viability (LK-2; first compound 2.53 µM): 1.35 | relative viability (LK-2; first compound 8 µM): 1.06 | relative viability (LOU-NH91; first compound 0.08 µM): 0.938 | relative viability (LOU-NH91; first compound 0.253 µM): 0.873 | relative viability (LOU-NH91; first compound 0.8 µM): 0.903 | relative viability (LOU-NH91; first compound 2.53 µM): 0.914 | relative viability (LOU-NH91; first compound 8 µM): 0.948 | relative viability (NCI-H1563; first compound 0.08 µM): 0.953 | relative viability (NCI-H1563; first compound 0.253 µM): 0.955 | relative viability (NCI-H1563; first compound 0.8 µM): 0.883 | relative viability (NCI-H1563; first compound 2.53 µM): 0.844 | relative viability (NCI-H1563; first compound 8 µM): 0.877 | relative viability (NCI-H1666; first compound 0.08 µM): 0.991 | relative viability (NCI-H1666; first compound 0.253 µM): 1.01 | relative viability (NCI-H1666; first compound 0.8 µM): 0.969 | relative viability (NCI-H1666; first compound 2.53 µM): 0.732 | relative viability (NCI-H1666; first compound 8 µM): 0.777 | relative viability (NCI-H1734; first compound 0.08 µM): 0.942 | relative viability (NCI-H1734; first compound 0.253 µM): 0.819 | relative viability (NCI-H1734; first compound 0.8 µM): 0.78 | relative viability (NCI-H1734; first compound 2.53 µM): 0.476 | relative viability (NCI-H1734; first compound 8 µM): 0.748 | relative viability (NCI-H1755; first compound 0.08 µM): 0.922 | relative viability (NCI-H1755; first compound 0.253 µM): 0.886 | relative viability (NCI-H1755; first compound 0.8 µM): 0.94 | relative viability (NCI-H1755; first compound 2.53 µM): 0.888 | relative viability (NCI-H1755; first compound 8 µM): 0.878 | relative viability (NCI-H1975; first compound 0.08 µM): 0.917 | relative viability (NCI-H1975; first compound 0.253 µM): 0.834 | relative viability (NCI-H1975; first compound 0.8 µM): 0.974 | relative viability (NCI-H1975; first compound 2.53 µM): 0.785 | relative viability (NCI-H1975; first compound 8 µM): 0.878 | relative viability (NCI-H2170; first compound 0.08 µM): 1.06 | relative viability (NCI-H2170; first compound 0.253 µM): 1.01 | relative viability (NCI-H2170; first compound 0.8 µM): 0.987 | relative viability (NCI-H2170; first compound 2.53 µM): 0.591 | relative viability (NCI-H2170; first compound 8 µM): 0.986 | relative viability (NCI-H23; first compound 0.08 µM): 0.795 | relative viability (NCI-H23; first compound 0.253 µM): 1.08 | relative viability (NCI-H23; first compound 0.8 µM): 1.02 | relative viability (NCI-H23; first compound 2.53 µM): 0.808 | relative viability (NCI-H23; first compound 8 µM): 0.881 | relative viability (NCI-H441; first compound 0.08 µM): 1.01 | relative viability (NCI-H441; first compound 0.253 µM): 0.958 | relative viability (NCI-H441; first compound 0.8 µM): 1.03 | relative viability (NCI-H441; first compound 2.53 µM): 0.789 | relative viability (NCI-H441; first compound 8 µM): 1.15 | relative viability (NCI-H520; first compound 0.08 µM): 0.728 | relative viability (NCI-H520; first compound 0.253 µM): 0.95 | relative viability (NCI-H520; first compound 0.8 µM): 0.831 | relative viability (NCI-H520; first compound 2.53 µM): 0.909 | relative viability (NCI-H520; first compound 8 µM): 0.794 | relative viability (NCI-H596; first compound 0.08 µM): 0.878 | relative viability (NCI-H596; first compound 0.253 µM): 1.01 | relative viability (NCI-H596; first compound 0.8 µM): 0.871 | relative viability (NCI-H596; first compound 2.53 µM): 1 | relative viability (NCI-H596; first compound 8 µM): 0.869 | relative viability (PC-3 [JPC-3]; first compound 0.08 µM): 1.05 | relative viability (PC-3 [JPC-3]; first compound 0.253 µM): 1.02 | relative viability (PC-3 [JPC-3]; first compound 0.8 µM): 1.06 | relative viability (PC-3 [JPC-3]; first compound 2.53 µM): 1.06 | relative viability (PC-3 [JPC-3]; first compound 8 µM): 1.2 | relative viability (SK-MES-1; first compound 0.08 µM): 1.06 | relative viability (SK-MES-1; first compound 0.253 µM): 0.773 | relative viability (SK-MES-1; first compound 0.8 µM): 0.978 | relative viability (SK-MES-1; first compound 8 µM): 0.925 | relative viability (SW 900; first compound 0.08 µM): 0.913 | relative viability (SW 900; first compound 0.253 µM): 1.07 | relative viability (SW 900; first compound 0.8 µM): 0.842 | relative viability (SW 900; first compound 2.53 µM): 0.945 | relative viability (SW 900; first compound 8 µM): 0.804
